System: HCV replication
Assay: Replicon Assay (Huh-lucubineo-ET cells, luciferase readout)
Format: cell-based
Settings: Hepatitis C virus; ET (Huh-lucubineo-ET) HCV replicon cell line; luciferase activity 48-72 hours after compound addition; 6 dilutions
In short: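 Huh-lucubineo-ET cells stably carrying a firefly luciferase-ubiquitin-neo/NS3-5B ET replicon (adaptive mutations E1202G, T1280I, K1846T) were plated 24 h before compound, then treated at 5 or 50 μM or six 3-fold dilutions. Luciferase read 48-72 h later; % inhibition vs no-compound control, EC50/TC50 from Hill-equation fit.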

SMILES	EC50 [nM]
Fc1cccc(-c2nc3cnn(Cc4ccc(-c5ccc(OCC6CCOCC6)cc5C(F)(F)F)nn4)cc-3n2)c1F [Compound 320, 2-(2,3-Difluoro-phenyl)-5-{6-[4-(tetrahydro-pyran-4-ylmethoxy)-2-trifluoromethyl-phenyl]-pyridazin-3-ylmethyl}-5H-imidazo[4,5-d]pyridazine]	1710
CC[C@H](C)COc1ccc(-c2ccc(Cn3cc4nc(-c5cccc(F)c5F)nc-4cn3)nn2)c(C(F)(F)F)c1 [Compound 321, 2-(2,3-Difluoro-phenyl)-5-{6-[4-(2-methyl-butoxy)-2-trifluoromethyl-phenyl]-pyridazin-3-ylmethyl}-5H-imidazo[4,5-d]pyridazine]	45
CCOc1ccc(-c2ccc(Cn3cc4nc(-c5ccccc5F)nc-4cn3)cn2)c(C(F)(F)F)c1 [Compound 322, 5-[6-(4-Ethoxy-2-trifluoromethyl-phenyl)-pyridin-3-ylmethyl]-2-(2-fluoro-phenyl)-5H-imidazo[4,5-d]pyridazine]	33
CCCOc1ccc(-c2ccc(Cn3cc4nc(-c5ccccc5F)nc-4cn3)cn2)c(C(F)(F)F)c1 [Compound 323, 2-(2-Fluoro-phenyl)-5-[6-(4-propoxy-2-trifluoromethyl-phenyl)-pyridin-3-ylmethyl]-5H-imidazo[4,5-d]pyridazine]	33
COCCOc1ccc(-c2ccc(Cn3cc4nc(-c5cccc(F)c5F)nc-4cn3)nn2)c(C(F)(F)F)c1 [Compound 324, 2-(2,3-Difluoro-phenyl)-5-{6-[4-(2-methoxy-ethoxy)-2-trifluoromethyl-phenyl]-pyridazin-3-ylmethyl}-5H-imidazo[4,5-d]pyridazine]	65
N#CCOc1ccc(-c2ccc(Cn3cc4nc(-c5cccc(F)c5F)nc-4cn3)nn2)c(C(F)(F)F)c1 [Compound 325, (4-{6-[2-(2,3-Difluoro-phenyl)-imidazo[4,5-d]pyridazin-5-ylmethyl]-pyridazin-3-yl}-3-trifluoromethyl-phenoxy)-acetonitrile]	107
Fc1cccc(-c2nc3cnn(Cc4ccc(-c5ccc(OCC6CCOC6)cc5C(F)(F)F)nn4)cc-3n2)c1F (stereo not shown) [Compound 326, 2-(2,3-Difluoro-phenyl)-5-{6-[4-(tetrahydro-furan-3-ylmethoxy)-2-trifluoromethyl-phenyl]-pyridazin-3-ylmethyl}-5H-imidazo[4,5-d]pyridazine]	1680
Fc1cccc(-c2nc3cnn(Cc4ccc(-c5ccc(OCC6CC6)cc5C(F)(F)F)nn4)cc-3n2)c1F [Compound 327, 5-[6-(4-Cyclopropylmethoxy-2-trifluoromethyl-phenyl)-pyridazin-3-ylmethyl]-2-(2,3-difluoro-phenyl)-5H-imidazo[4,5-d]pyridazine]	54
CC(C)COc1ccc(-c2ccc(Cn3cc4nc(-c5cccc(F)c5F)nc-4cn3)nn2)c(C(F)(F)F)c1 [Compound 328, 2-(2,3-Difluoro-phenyl)-5-[6-(4-isobutoxy-2-trifluoromethyl-phenyl)-pyridazin-3-ylmethyl]-5H-imidazo[4,5-d]pyridazine]	35
CC(C)CCOc1ccc(-c2ccc(Cn3cc4nc(-c5cccc(F)c5F)nc-4cn3)nn2)c(C(F)(F)F)c1 [Compound 329, 2-(2,3-Difluoro-phenyl)-5-{6-[4-(3-methyl-butoxy)-2-trifluoromethyl-phenyl]-pyridazin-3-ylmethyl}-5H-imidazo[4,5-d]pyridazine]	858
Fc1cccc(-c2nc3cnn(Cc4ccc(-c5ccc(OCCn6ccnc6)cc5C(F)(F)F)nn4)cc-3n2)c1F [Compound 330, 2-(2,3-Difluoro-phenyl)-5-{6-[4-(2-imidazol-1-yl-ethoxy)-2-trifluoromethyl-phenyl]-pyridazin-3-ylmethyl}-5H-imidazo[4,5-d]pyridazine]	≥ 50000
Fc1cccc(-c2nc3cnn(Cc4ccc(-c5ccc(-c6ccccn6)cc5C(F)(F)F)nn4)cc-3n2)c1F [Compound 331, 2-(2,3-Difluoro-phenyl)-5-[6-(4-pyridin-2-yl-2-trifluoromethyl-phenyl)-pyridazin-3-ylmethyl]-5H-imidazo[4,5-d]pyridazine]	≥ 50000
CC(C)Cc1ccc(-c2ccc(Cn3cc4nc(-c5cccc(F)c5F)nc-4cn3)nn2)c(C(F)(F)F)c1 [Compound 332, 2-(2,3-Difluoro-phenyl)-5-[6-(4-isobutyl-2-trifluoromethyl-phenyl)-pyridazin-3-ylmethyl]-5H-imidazo[4,5-d]pyridazine]	19
CCCOc1ccc(-c2ccc(Cn3cc4nc(-c5cccc(F)c5F)nc-4cn3)cn2)c(C(F)(F)F)c1 [Compound 333, 2-(2,3-Difluoro-phenyl)-5-[6-(4-propoxy-2-trifluoromethyl-phenyl)-pyridin-3-ylmethyl]-5H-imidazo[4,5-d]pyridazine]	10
COc1ccc(-c2ccc(Cn3cc4nc(-c5cccc(F)c5F)nc-4cn3)c(N)c2)c(C(F)(F)F)c1 [Compound 334, 4-[2-(2,3-Difluoro-phenyl)-imidazo[4,5-d]pyridazin-5-ylmethyl]-4′-methoxy-2′-trifluoromethyl-biphenyl-3-ylamine]	20
Nc1cc(C(F)(F)F)ccc1-c1ccc(Cn2cc3nc(-c4cccc(F)c4F)nc-3cn2)cn1 [Compound 335, 2-{5-[2-(2,3-Difluoro-phenyl)-imidazo[4,5-d]pyridazin-5-ylmethyl]-pyridin-2-yl}-5-trifluoromethyl-phenylamine]	2390
Cc1ccc(-c2ccc(C(F)(F)F)cc2C(F)(F)F)c(Cn2cc3nc(-c4cccc(F)c4F)nc-3cn2)n1 [Compound 336, 5-[3-(2,4-Bis-trifluoromethyl-phenyl)-6-methyl-pyridin-2-ylmethyl]-2-(2,3-difluoro-phenyl)-5H-imidazo[4,5-d]pyridazine]	≥ 50000
Cc1nc(Cn2cc3nc(-c4cccc(F)c4F)nc-3cn2)ccc1-c1ccc(C(F)(F)F)cc1C(F)(F)F [Compound 337, 5-[5-(2,4-Bis-trifluoromethyl-phenyl)-6-methyl-pyridin-2-ylmethyl]-2-(2,3-difluoro-phenyl)-5H-imidazo[4,5-d]pyridazine]	166
COc1ccc(-c2ccc(Cn3cc4nc(-c5cccc(F)c5F)nc-4cn3)c[n+]2[O-])c(C(F)(F)F)c1 [Compound 338, 2-(2,3-Difluoro-phenyl)-5-[6-(4-methoxy-2-trifluoromethyl-phenyl)-1-oxy-pyridin-3-ylmethyl]-5H-imidazo[4,5-d]pyridazine]	1300
CNc1cccc(-c2nc3cnn(Cc4ccc(-c5ccc(C(F)(F)F)cc5C(F)(F)F)nc4)cc-3n2)c1F [Compound 339, (3-{5-[6-(2,4-Bis-trifluoromethyl-phenyl)-pyridin-3-ylmethyl]-5H-imidazo[4,5-d]pyridazin-2-yl}-2-fluoro-phenyl)-methyl-amine]	14300
N#Cc1cc(C(F)(F)F)ccc1-c1ccc(Cn2cc3nc(-c4cccc(F)c4F)nc-3cn2)cn1 [Compound 340, 2-{5-[2-(2,3-Difluoro-phenyl)-imidazo[4,5-d]pyridazin-5-ylmethyl]-pyridin-2-yl}-5-trifluoromethyl-benzonitrile]	95
Fc1cccc(-c2nc3cnn(Cc4ccc(Oc5ccc(OC(F)(F)F)cc5)nn4)cc-3n2)c1F [Compound 341, 2-(2,3-Difluoro-phenyl)-5-[6-(4-trifluoromethoxy-phenoxy)-pyridazin-3-ylmethyl]-5H-imidazo[4,5-d]pyridazine]	6030

From patent publication US20090226398A1, “ANTI-VIRAL COMPOUNDS, COMPOSITIONS, AND METHODS OF USE” (Genelabs Technologies, Inc., priority 2008, published 2009)
